Source: patent US10443026B2, “Polygonal scaffold and manufacturing method thereof, and protein modulator and manufacturing method thereof” (NATIONAL TSING HUA UNIVERSITY, priority 2017, dated 2019)
Like-named read-outs stand apart in the source and are kept apart here. *1 amine or outer side, *2 acyl side, *3 side chain or, on linkers, in order; H or OH if unused. Where a SMILES comes first, the peptide text is derived from it. [ ]: non-standard residue; d: D form. The star is where a group is joined. Pro(trans-4-NH2) = O=C([C@@H]1C[C@@H](N[*:3])CN1[*:1])[*:2]; X2 = CC(=O)NC1C(OCCn2cc(CCC(=O)*)nn2)OC(CO)C(O)C1O; X1 = O=C(CCCn1cc(CN[*:1])nn1)[*:2]

Target: SBA (soybean agglutinin) (Glycine max, UniProt P05046)
Experiment: Surface plasmon resonance (SPR) binding to immobilized SBA
Description: Assay: surface plasmon resonance (SPR) experiments were performed on the Biacore T200 at 25° C. using a functionalized CM5 sensor chip. Protein immobilization was performed according to the instrument build-in wizard template. The CM5 sensor chip was activated with a solution containing N-ethyl-N′-(3-[…])-carbodiimide (EDC) (0.2 M) and N-hydroxysuccinimide (NHS) (0.05 M). HPA (10 μg/mL) in NaOAc buffer (pH 6) or SBA (10 μg/mL) in NaOAc buffer (pH 4) was injected over the activated flow cell at flow rate of 10 μL/min for 420 s. Then 1 M ethanolamine at pH 8.5 was injected to block the remaining activated groups. Binding assays were performed with HBS-P+(10 mM HEPES, 150 mM NaCI, 0.05% tween 20, pH 7.4) for HPA or 10 mM HEPES, 150 mM NaCl, 0.05% tween 20, and 100 μM CaCl2, 0.05% tween 20, pH 7.5 for SBA as running buffer. Protein modulator for test (COM1, SL4, SL5 and SL6) were injected onto the surface, with several concentrations of ranging from 6.25 nM to 100 nM for protein modulator COM1 and 10 nM to 160 nM for protein modulators SL4, SL5 and SL6 to HPA or from 62.5 nM to 1000 nM for protein modulator COM1 and 100 nM to 1600 nM for protein modulators SL4, SL5 and SL6 to SBA at the rate of 30 μL/min diluted in the running buffer. The surface was regenerated by 30 s injection of 300 mM GlcNAc for HPA or 100 mM methyl β-D-galactopyranoside for LecA. The sensorgrams were reference subtracted, quality controlled and analyzed by Biacore T200 Evaluation Software, and the kinetic parameters were obtained by fitting curves to 1:1 Langmuir model.

Chain of SBA (soybean agglutinin) (P05046 33-285): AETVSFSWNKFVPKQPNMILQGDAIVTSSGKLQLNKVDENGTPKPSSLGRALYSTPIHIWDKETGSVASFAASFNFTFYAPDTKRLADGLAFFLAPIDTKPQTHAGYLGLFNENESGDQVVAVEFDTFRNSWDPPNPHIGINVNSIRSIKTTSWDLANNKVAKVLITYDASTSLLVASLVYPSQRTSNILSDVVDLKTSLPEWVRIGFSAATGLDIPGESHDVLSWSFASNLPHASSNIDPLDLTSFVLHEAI

| Compound | Kd [nM] | Kd (SPR, Biacore T200, 25° C., SBA immobilized on CM5 chip, HEPES buffer with 100 μM CaCl2 pH 7.5, 1:1 Langmuir model, read-out: KD(nM) SBA) [nM] |
| --- | --- | --- |
| CC(=O)NC1C(OCCn2cc(CCC(=O)N[C@@H]3C[C@H]4C(=O)N5CCC[C@H]5C(=O)N5CCC[C@H]5C(=O)N5CCC[C@H]5C(=O)N5CCC[C@H]5C(=O)N5CCC[C@H]5C(=O)N5CCC[C@H]5C(=O)N5CCC[C@H]5C(=O)N5CCC[C@H]5C(=O)NCc5cn(nn5)CCCC(=O)N5C[C@H](NC(=O)CCc6cn(CCOC7OC(CO)C(O)C(O)C7NC(C)=O)nn6)C[C@H]5C(=O)N5CCC[C@H]5C(=O)N5CCC[C@H]5C(=O)N5CCC[C@H]5C(=O)N5CCC[C@H]5C(=O)N5CCC[C@H]5C(=O)N5CCC[C@H]5C(=O)N5CCC[C@H]5C(=O)N5CCC[C@H]5C(=O)NCc5cn(nn5)CCCC(=O)N5C[C@H](NC(=O)CCc6cn(CCOC7OC(CO)C(O)C(O)C7NC(C)=O)nn6)C[C@H]5C(=O)N5CCC[C@H]5C(=O)N5CCC[C@H]5C(=O)N5CCC[C@H]5C(=O)N5CCC[C@H]5C(=O)N5CCC[C@H]5C(=O)N5CCC[C@H]5C(=O)N5CCC[C@H]5C(=O)N5CCC[C@H]5C(=O)NCc5cn(nn5)CCCC(=O)N4C3)nn2)OC(CO)C(O)C1O (stereo partly drawn) [SL4] (cyclo(PPPPPPPP[X1][Pro(trans-4-NH2)](X2)PPPPPPPP[X1][Pro(trans-4-NH2)](X2)PPPPPPPP[X1][Pro(trans-4-NH2)](X2))) | 98.1 |  |
| CC(=O)NC1C(OCCn2cc(CCC(=O)N[C@@H]3C[C@H]4C(=O)N5CCC[C@H]5C(=O)N5CCC[C@H]5C(=O)N5CCC[C@H]5C(=O)N5CCC[C@H]5C(=O)N5CCC[C@H]5C(=O)N5CCC[C@H]5C(=O)N5CCC[C@H]5C(=O)N5CCC[C@H]5C(=O)NCc5cn(nn5)CCCC(=O)N5CCC[C@H]5C(=O)N5CCC[C@H]5C(=O)N5CCC[C@H]5C(=O)N5CCC[C@H]5C(=O)N5CCC[C@H]5C(=O)N5CCC[C@H]5C(=O)N5CCC[C@H]5C(=O)N5CCC[C@H]5C(=O)N5CCC[C@H]5C(=O)NCc5cn(nn5)CCCC(=O)N5C[C@H](NC(=O)CCc6cn(CCOC7OC(CO)C(O)C(O)C7NC(C)=O)nn6)C[C@H]5C(=O)N5CCC[C@H]5C(=O)N5CCC[C@H]5C(=O)N5CCC[C@H]5C(=O)N5CCC[C@H]5C(=O)N5CCC[C@H]5C(=O)N5C[C@H](NC(=O)CCc6cn(CCOC7OC(CO)C(O)C(O)C7NC(C)=O)nn6)C[C@H]5C(=O)N5CCC[C@H]5C(=O)N5CCC[C@H]5C(=O)NCc5cn(nn5)CCCC(=O)N4C3)nn2)OC(CO)C(O)C1O (stereo partly drawn) [SL5] (cyclo(PPPPPPPPP[X1][Pro(trans-4-NH2)](X2)PPPPP[Pro(trans-4-NH2)](X2)PP[X1][Pro(trans-4-NH2)](X2)PPPPPPPP[X1])) | 138 |  |
| CC(=O)NC1C(OCCn2cc(CCC(=O)N[C@@H]3C[C@H]4C(=O)N5CCC[C@H]5C(=O)N5CCC[C@H]5C(=O)N5C[C@H](NC(=O)CCc6cn(CCOC7OC(CO)C(O)C(O)C7NC(C)=O)nn6)C[C@H]5C(=O)N5CCC[C@H]5C(=O)N5CCC[C@H]5C(=O)N5C[C@H](NC(=O)CCc6cn(CCOC7OC(CO)C(O)C(O)C7NC(C)=O)nn6)C[C@H]5C(=O)N5CCC[C@H]5C(=O)N5CCC[C@H]5C(=O)NCc5cn(nn5)CCCC(=O)N5CCC[C@H]5C(=O)N5CCC[C@H]5C(=O)N5CCC[C@H]5C(=O)N5CCC[C@H]5C(=O)N5CCC[C@H]5C(=O)N5CCC[C@H]5C(=O)N5CCC[C@H]5C(=O)N5CCC[C@H]5C(=O)N5CCC[C@H]5C(=O)NCc5cn(nn5)CCCC(=O)N5CCC[C@H]5C(=O)N5CCC[C@H]5C(=O)N5CCC[C@H]5C(=O)N5CCC[C@H]5C(=O)N5CCC[C@H]5C(=O)N5CCC[C@H]5C(=O)N5CCC[C@H]5C(=O)N5CCC[C@H]5C(=O)N5CCC[C@H]5C(=O)NCc5cn(nn5)CCCC(=O)N4C3)nn2)OC(CO)C(O)C1O (stereo partly drawn) [SL6] (cyclo(PPPPPPPPP[X1]PPPPPPPPP[X1][Pro(trans-4-NH2)](X2)PP[Pro(trans-4-NH2)](X2)PP[Pro(trans-4-NH2)](X2)PP[X1])) | 255 |  |
| CC(=O)NC1C(OCCn2cc(CNC(=O)CCOCC(COCCC(=O)NCc3cn(CCOC4OC(CO)C(O)C(O)C4NC(C)=O)nn3)(COCCC(=O)NCc3cn(CCOC4OC(CO)C(O)C(O)C4NC(C)=O)nn3)NC(=O)COCCOCCN)nn2)OC(CO)C(O)C1O (stereo not shown) [COM1, reference compound] |  | 61.2 |
